The record followed here is article PMC8000814, “Structure-Based Virtual Screening: Identification of a Novel NS2B-NS3 Protease Inhibitor with Potent Antiviral Activity against Zika and Dengue Viruses” (Microorganisms, 2021).

The assay deals with T1, ZIKV NS2B-NS3 protease (Zika virus ZIKV/H. sapiens/FrenchPolynesia/10087PF/2013, UniProt A0A024B7W1).
T1 construct: recombinant NS2B-NS3 protease cut from the ZIKV genome polyprotein; codon-optimized synthetic gene in pET22b; His-tag fused; E. coli BL21(DE3); Ni-NTA purified
As to the kind of experiment: fluorescence-based protease inhibition assay, ex […] nm / em […] nm. It counts as biochemical. The note with it: read-out: apparent IC50.

T1 sequence (A0A024B7W1 1503-1680): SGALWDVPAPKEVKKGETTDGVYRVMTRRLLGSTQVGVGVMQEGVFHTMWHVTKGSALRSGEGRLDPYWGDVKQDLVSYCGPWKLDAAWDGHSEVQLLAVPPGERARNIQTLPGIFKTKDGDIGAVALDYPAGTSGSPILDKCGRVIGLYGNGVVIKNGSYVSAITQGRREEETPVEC

Take `O=[N+]([O-])c1ccc(Nc2ccc3[nH]ncc3c2)nc1N1CCNCC1` [compound 1]: the IC50 (in general, the concentration that gives 50% inhibition) came out at 1500 nM.
